As a reminder, the inhibition is how much of the control response was suppressed.

These results are taken from US12473332B2, “Modified peptides and associated methods of use” (Advanced Technologies For Novel Therapeutics, LLC, priority 2019, dated 2025).

In one assay the target is PAK3 (Homo sapiens, UniProt O75914). Nature of the assay: in vitro kinase assay, selectivity. Type of assay: biochemical. On the set-up: dose or concentration left out as unconfirmed. As for the experimental part:
(§1) To test the specificity/selectivity of ZaTa as the inhibitor of AKT1 versus the other major kinases, a series of in vitro kinase assays was performed at IC50 for AKT1 and at ten times higher concentrations. A panel of the following 32 kinases was first tested in vitro using the active form of each kinase and a specific substrate: AKT2, AKT3, PKA, PKCα, PKCγ, PI3Kβ, PI3Kδ, PI3Kγ, SGK, PAK2, PAK3, SAPK2/p38, Abl, CaMKII, CDK1/cyclinB, CDK5/p35, CK1, CK2, CSK, GSK3α, GSK3β, JNK1α1, MAPK1, p70S6K, PDGFRα, PDGFRβ, PDK1, PKG1α, TrkB, JAK2, JAK3, and Syk. […] However, at ten times higher concentration, ZaTa inhibited AKT2 (63%), PI3Kδ (72%), p70S6K (64%), SGK (73%), PAK3 (83%), JAK3 (79%), TrkB (84%), and Abl (42%). To confirm the in vitro inhibitory effect on these kinases in cells, a cell-based assay was used to determine the effect of labeled ZaTa on the phosphorylation levels of well-known intracellular substrates for each kinase (Zipfel, et al. (2004) Curr. Biol. 14:1222-1231; Wang, et al. (2003) Arch. Biochem. Biophys. 410:7-15; King, et al. (1998) Nature 396:180-183; Rangone, et al. (2004)Eur. J. Neurosci. 19:273-279; Middlemas, et al. (1994)J. Biol. Chem. 269:5458-5466; Huang, et al. (1999) J. Biol. Chem. 274:7870-7878). The results of this cell-based kinase assay confirmed that ZaTa could inhibit p70S6K besides AKT. […] Given that most of the above-listed kinases have no known inhibitor, it is contemplated that the ZaTa could be used at micromolar concentrations in in vitro studies to inhibit the activity of the select kinases.

The target in another assay is Abl (Homo sapiens, UniProt P00519). The assay can be described thus: in vitro kinase assay, selectivity. Type of assay: biochemical. The arrangement: dose or concentration left out as unconfirmed. As for the experimental part: as §1
Abl, sequence (P00519 whole entry, species assumed): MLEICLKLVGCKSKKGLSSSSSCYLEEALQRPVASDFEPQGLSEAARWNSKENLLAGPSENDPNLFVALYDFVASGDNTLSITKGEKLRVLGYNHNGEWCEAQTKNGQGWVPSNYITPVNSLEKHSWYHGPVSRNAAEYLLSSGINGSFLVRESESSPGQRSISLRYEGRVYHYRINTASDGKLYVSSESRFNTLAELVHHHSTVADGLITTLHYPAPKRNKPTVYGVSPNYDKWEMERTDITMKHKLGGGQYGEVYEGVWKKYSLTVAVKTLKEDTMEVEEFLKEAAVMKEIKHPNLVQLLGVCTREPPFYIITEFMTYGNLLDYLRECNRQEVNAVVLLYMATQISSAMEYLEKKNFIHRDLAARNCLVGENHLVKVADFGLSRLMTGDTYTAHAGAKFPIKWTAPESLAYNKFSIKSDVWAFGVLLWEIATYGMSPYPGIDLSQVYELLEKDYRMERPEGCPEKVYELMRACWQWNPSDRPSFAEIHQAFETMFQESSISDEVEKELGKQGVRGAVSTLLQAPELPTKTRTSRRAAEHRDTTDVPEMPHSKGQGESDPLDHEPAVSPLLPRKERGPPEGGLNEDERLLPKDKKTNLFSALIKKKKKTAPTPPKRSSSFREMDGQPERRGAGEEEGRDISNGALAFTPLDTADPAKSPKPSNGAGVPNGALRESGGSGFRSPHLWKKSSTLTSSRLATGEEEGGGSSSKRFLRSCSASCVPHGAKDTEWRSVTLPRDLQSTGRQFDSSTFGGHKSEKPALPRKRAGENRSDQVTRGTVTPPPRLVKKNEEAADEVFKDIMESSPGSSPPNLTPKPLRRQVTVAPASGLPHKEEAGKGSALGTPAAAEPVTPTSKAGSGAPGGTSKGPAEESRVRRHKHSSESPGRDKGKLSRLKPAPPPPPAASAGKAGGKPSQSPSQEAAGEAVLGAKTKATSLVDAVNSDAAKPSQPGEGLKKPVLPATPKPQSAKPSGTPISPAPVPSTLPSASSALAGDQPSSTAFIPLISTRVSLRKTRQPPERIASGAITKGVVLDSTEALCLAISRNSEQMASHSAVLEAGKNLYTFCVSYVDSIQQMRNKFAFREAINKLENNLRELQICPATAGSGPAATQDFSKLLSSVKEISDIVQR
A further assay addresses T1, AKT (Mus musculus, UniProt P31750).
T1 construct: from tissue; host or cells: brain striatum, in vivo
The assay can be described thus: stereotactic injection into brain striatum, phosphorylation of AKT substrates. Particulars: vs DMSO hemisphere. Type of assay: in vivo. As for the experimental part: After the stereotactic injection of ZaTa peptide, a decrease in the phosphorylation level of AKT substrates in the striatum of a brain hemisphere was observed as compared to the other hemisphere that was injected with DMSO as the vehicle. […] As a specific substrate, the phosphorylation level of GSK-3β at Ser-9 was also evaluated. […] The decrease was specific to the AKT phosphorylation site on GSK-3β at Ser-9, since a change in the phosphorylation level of GSK-3β at Tyr-216 or GSK-3α at Tyr-279 was not observed. Moreover, the in vivo reduction of the phosphorylation of AKT substrates was more obvious at the injection site, since a significant change in the phosphorylation of AKT substrates in the frontal cortex or cerebellum between the two hemispheres was not observed.
(§2) The phenotypic consequence of disrupting the AKT-PKAc complex was also determined. ZaTa peptide was injected into the striatum of one hemisphere of the brain and DMSO, as vehicle, was injected into the other brain hemisphere of an adult C57BL/6 mouse under anesthesia. The brain was removed and dissected. Equal protein amounts from each hemisphere were subjected to immunoprecipitation by an anti-AKT antibody. […] To compare PKAc protein levels in the ZaTa- and vehicle-treated brain hemisphere lysates, western blot analysis was conducted.

For another assay, the system named is N2a cells. The assay can be described thus: MTT-based proliferation assay. The format is cell-based. As for the experimental part: AKT affects a network that positively regulates G1/S cell cycle progression through several mechanisms that involve the expression and subcellular localization of the CDK inhibitor p27^Kip1 (Blain and Massague (2002) Nat. Med. 8:1076-1078; Liang, et al. (2002) supra; Shin, et al. (2002) supra; Viglietto, et al. (2002) supra). Based on these studies, the effect of ZaTa peptide on cell proliferation was assessed. […] Capturing live images of cultured N2a cells in the presence of different concentrations of the ZaTa peptide confirmed an obvious reduction in the number of dividing cells.
Based on the importance of the C-terminal arm of ZaTa for its inhibitory action on AKT, it was determined whether the free hydroxyl groups on residues Thr-8, Thr-10 (equivalent to Thr-197 in full-length PKAc), Thr-14 and Tyr-17 were important for the biological activity of this peptide. Mutants of ZaTa peptide were synthesized by replacing Thr-8 or Thr-10 residues with Asp (ZaTa^T8D and ZaTa^T10D, respectively) as an amino acid with a negatively charged side chain. Mutants of ZaTa with the hydrophilic positively charged amino acid Arg at either position Thr-14 or Tyr-17 (ZaTa^T14R and ZaTa^Y17R, respectively) were also synthesized. […] The inhibitory effect of ZaTa peptide on cell proliferation was reversible, to a large extent, after the removal of ZaTa treatment.
A general note: Formazan colour is commonly taken as a measure of viable cells.

The target of the next assay is T2, AKT-PKAc complex (Mus musculus, UniProt P31750).
T2 construct: ZaTa could disrupt the physical complex between AKT and PKAc in vivo; from tissue; host or cells: mouse striatum
T2 sequence (P31750 whole entry, one chain of several): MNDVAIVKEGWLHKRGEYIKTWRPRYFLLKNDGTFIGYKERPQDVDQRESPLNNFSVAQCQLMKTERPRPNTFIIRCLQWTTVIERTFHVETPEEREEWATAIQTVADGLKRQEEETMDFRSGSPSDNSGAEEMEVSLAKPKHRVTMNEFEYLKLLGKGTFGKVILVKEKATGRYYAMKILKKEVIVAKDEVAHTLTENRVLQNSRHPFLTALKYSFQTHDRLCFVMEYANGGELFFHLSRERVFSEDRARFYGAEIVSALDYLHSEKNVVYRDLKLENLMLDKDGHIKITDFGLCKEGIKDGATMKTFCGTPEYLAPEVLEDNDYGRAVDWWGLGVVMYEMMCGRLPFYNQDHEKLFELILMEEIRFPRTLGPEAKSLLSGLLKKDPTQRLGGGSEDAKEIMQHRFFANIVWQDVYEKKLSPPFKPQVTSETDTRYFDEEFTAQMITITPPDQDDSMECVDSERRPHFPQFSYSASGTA
The assay can be described thus: AKT immunoprecipitation from striatum after stereotactic injection. Particulars: ZaTa vs vehicle hemisphere. The format is in vivo, C57BL/6 mouse. As for the experimental part: as §2

Where no end group is shown, it is not given here.

T1 sequence (P31750 whole entry): as the sequence (P31750 whole entry, one chain of several) above
PAK3, sequence (O75914 whole entry, species assumed): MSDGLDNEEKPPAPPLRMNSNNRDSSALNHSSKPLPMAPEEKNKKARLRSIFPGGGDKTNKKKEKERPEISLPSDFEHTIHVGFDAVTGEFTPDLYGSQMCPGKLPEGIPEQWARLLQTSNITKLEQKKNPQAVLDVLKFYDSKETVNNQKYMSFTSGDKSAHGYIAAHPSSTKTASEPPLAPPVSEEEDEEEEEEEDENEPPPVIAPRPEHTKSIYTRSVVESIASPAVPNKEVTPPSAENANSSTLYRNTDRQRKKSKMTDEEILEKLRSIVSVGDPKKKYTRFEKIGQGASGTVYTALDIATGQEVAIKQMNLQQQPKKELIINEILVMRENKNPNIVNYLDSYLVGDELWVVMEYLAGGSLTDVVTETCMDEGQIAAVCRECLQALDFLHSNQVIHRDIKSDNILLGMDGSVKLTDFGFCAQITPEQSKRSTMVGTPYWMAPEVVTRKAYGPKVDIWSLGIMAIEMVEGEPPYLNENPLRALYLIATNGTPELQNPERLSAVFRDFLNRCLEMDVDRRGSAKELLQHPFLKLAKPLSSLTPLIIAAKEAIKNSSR

“AKRVKGRTWTLCGTPEY [Peptide 53, A-K-R-V-K-G-R-T-W-T-L-C-G-T-P-E-Y]”: the inhibition against PAK3 amounted to 83%; at Abl, 42%. In addition, the “phosphorylation level of AKT substrates in vivo” value at AKT (one hour after stereotactic injection) is “significant decrease in the phosphorylation level of AKT substrates”. The “phosphorylation level of GSK-3β at Ser-9 in vivo” value at AKT (stereotactic injection) was “specific reduction”. Further, in the assay on N2a cells (24 hours after removal of 10 μM, vs DMSO vehicle), the “number of live cells after removal of treatment (reversibility)” value is “no significant differences in the number of live cells”. In addition, the “number of live cells” value with N2a cells (MTT) is “dose-dependent decrease in the number of live cells”. Further, the “dose causing a significant decrease in the number of live cells” value in the assay with N2a cells (doses as low as) stood at 2 µM. The “amount of PKAc in physical contact with AKT” value on AKT-PKAc complex is listed as “dramatically reduced”.
